From paper PMC11286609, “In vitro and in vivo analyses of eFAP: a novel FAP-targeting small molecule for radionuclide theranostics and other oncological interventions” (EJNMMI Radiopharmacy and Chemistry, 2024)

What was measured:
[1] = Stability in PBS at 37 °C (radio-HPLC / LC-MS); type: physicochemical; conditions: for Stability (% ± SD) PBS 1 h / Stability (% ± SD) PBS 4 h / Stability (% ± SD) PBS 24 h: % intact labeled ligand, 37 °C; for degradation: up to 24 h of incubation
Experimental: (§1) For the stability assessment of eFAP-6, [^111In]In-eFAP-6 or [^177Lu]Lu-eFAP-6 (~ 3–7 MBq, 20 µL) was mixed with 180 µL of PBS (0.01 M, pH 7.4) and incubated at 37 °C for up to 24 h. A sample of the PBS solution was directly injected on the radio-HPLC at 1, 4, and 24 h after incubation. Additionally, [^111In]In-eFAP-6 and [^177Lu]Lu-eFAP-6 (5–15 MBq, 50 µL) were incubated with 350 µL of commercially acquired mouse or human serum (Biolegend; San Diego, CA, USA) at 37 °C for up to 24 h. Following 1, 4, and 24 h of incubation, 50 µL of the solution were mixed with 50 µL of acetonitrile in an Eppendorf tube, and centrifuged at 5000× g for 20 min. The supernatant was then analyzed by radio-HPLC. Stability studies of eFAP-7 were performed by incubation of eFAP-7 (50 µL, 10^− 4 M) in 450 µL PBS or serum at 37 °C for up to 24 h. After 1, 4, and 24 h of incubation, 50 µL of the PBS incubation solution were directly analyzed by liquid chromatography-mass spectrometry (LC-MS), while 50 µL of the serum solution was mixed with 50 µL of acetonitrile in an Eppendorf tube, and centrifuged at 5000× g for 20 min, followed by LC-MS analyses.

[2] = Stability in mouse serum at 37 °C (radio-HPLC / LC-MS); type: in vitro ADME; conditions: for Stability (% ± SD) Mouse serum 1 h / Stability (% ± SD) Mouse serum 4 h / Stability (% ± SD) Mouse serum 24 h: % intact labeled ligand, 37 °C; for degradation: mouse serum (MS), up to 24 h of incubation
Experimental: as §1

[3] = Stability in human serum at 37 °C (radio-HPLC / LC-MS); type: in vitro ADME; conditions: for Stability (% ± SD) Human serum 1 h / Stability (% ± SD) Human serum 4 h / Stability (% ± SD) Human serum 24 h: % intact labeled ligand, 37 °C; for degradation: human serum (HS), up to 24 h of incubation
Experimental: as §1

[4] = LogD7.4 shake-flask method (n-octanol/PBS); type: physicochemical; conditions: n-octanol/PBS pH 7.4, shake-flask
Experimental: The distribution coefficients (LogD7.4) were determined using a shake-flask method, in which 2 µL (~ 0.5 MBq) of [^111In]In-eFAP-6 or 10 µL of eFAP-7 (10^− 4 M) was added to an Eppendorf tube containing 1 mL of PBS (0.01 M, pH 7.4) and n-octanol (v/v, 1:1). After vigorous vortexing, the solution was centrifuged at 2500× g for 15 min for phase separation. For radiolabeled eFAP-6, samples (3 × 10 µL) of the octanol and aqueous phases were taken out and measured in a 1480 Wizard automatic γ-counter (PerkinElmer; Groningen, The Netherlands). LogD7.4 values were calculated by using the following equation: LogD7.4 = log [(counts in octanol phase)/(counts in aqueous phase)]. For eFAP-7, samples (50 µL) of the octanol and aqueous phases were taken out and measured by LC-MS. LogD7.4 values were calculated by using the following equation: LogD7.4 = log [(area in octanol phase)/(area in aqueous phase)].

HT1080-huFAP cells = test: Radiotracer uptake assay in FAP-expressing cells; type: cell-based, human
Experimental: Cell experiments were performed with the human sarcoma HT1080 cell line, stably transduced with human FAP (HT1080-huFAP) which were kindly provided by Prof. Dr. Uwe Haberkorn from the University of Heidelberg. The wild type HT1080 (ATTC), hereafter HT080-WT, was used as a negative control. Additionally, the pancreatic stellate cells PS-1, obtained from Queen Mary University, were used as an endogenously FAP expressing cell line. HT1080-huFAP and HT1080-WT cells were cultured in DMEM Glutamax© (Gibco; Breda, The Netherlands) and the PS-1 cells were cultured in RPMI (Gibco). Both media were supplemented with 10% FBS (Gibco), 100 UI/mL penicillin, and 100 µg/mL streptomycin (Merck Life Science NV; Amsterdam, The Netherlands). All cell lines were regularly passaged at 80% confluence and cultured at 37 °C, 5% CO2.
In vitro displacement studies of eFAP-6 and eFAP-7, as well as specificity and uptake assays, were performed using HT0180-huFAP cells. One day prior to the assay 100,000 cells were seeded in a 12-well plate in triplicate. […] For the uptake assay, the cells were incubated with 1 nM [^111In]In-eFAP-6 or [^111In]In-FAPI-46 for different time points (5–120 min) in the presence and absence of 1 mM UAMC-1110 to determine the specificity of^111 radiotracer binding. In both assays, the cells were washed twice with PBS after incubation and were subsequently lysed using 1 M NaOH for 20 min. The cell lysates were collected and radioactivity was measured in a γ-counter (PerkinElmer), simultaneously with 100 µL of the radioactive incubation medium as a standard. Cells in separate wells were collected with Trypsin-EDTA (Gibco) for counting by the automated Countess II cell counter (Thermo Fisher Scientific; Bleiswijk, The Netherlands). Uptake was expressed as percentage added activity per 200,000 cells (% AA/200,000 cells), and specific uptake was corrected by subtracting the uptake measured in the block wells.

[5] = test system: HT1080-huFAP and HT1080-WT tumor-bearing mice; test: Ex vivo biodistribution study in tumor-bearing mice; conditions: for Biodistribution Bone: femur; for Biodistribution Bone / Biodistribution Blood / Biodistribution Cecum / Biodistribution Colon / Biodistribution Heart / Biodistribution Kidneys / Biodistribution Liver / Biodistribution Lungs / Biodistribution Muscle / Biodistribution Pancreas / Biodistribution Salivary glands / Biodistribution Small intestines / Biodistribution Stomach / Biodistribution Tumor HT1080-WT / Biodistribution Tumor HT1080-huFAP: i.v., 2.6 MBq/200 pmol; for Biodistribution GI Tract: stomach, small intestines, cecum and colon combined
Text: All animal experiments were approved by the Erasmus MC Animal Welfare Committee and were in accordance with European law. Five-week-old male NMRI-Foxn1 nu/nu mice (Janvier; Le Genest-Saint-Isle, France) were housed in individually ventilated cages with a maximum of three mice per cage. After one week of acclimatization, mice were subcutaneously inoculated with HT1080-huFAP on the right shoulder and HT1080-WT on the left shoulder (2.5 × 10^6 cells in Hank’s Balanced Salt Solution (Gibco)). Tumors were allowed to grow for 10 days, resulting in tumor sizes of 537 ± 269 mm^3 and 305 ± 190 mm^3 for HT1080-huFAP and HT1080-WT, respectively, at the start of the experiment. The animals received 200 µL of [^177Lu]Lu-eFAP-6 (n=3/4 per group) or [^177Lu]Lu-FAPI-46 (n=3/4 per group) (2.6 MBq/200 pmol) by intravenous injection through the tail vein, andat 1, 4, and 24 h p.i. biodistribution studies were performed. Blood was collected by orbital puncture under isoflurane/O2 anesthesia, immediately followed by cervical dislocation. Hereafter the two tumor xenografts, pancreas, liver, GI-tract (stomach, small intestine, cecum, colon), kidneys (left and right), lungs, heart, salivary glands, muscle, and bone (femur), were collected, weighed, and measured in a y-counter (PerkinElmer), alongside 10 µL of the injected activity as standard. The results are expressed as the percentage injected dose per gram (% ID/g).
All statistical analyses were performed with GraphPad Prism version 9.0 (San Diego, California USA). All IC50 values were determined using a non-linear regression Log(inhibitor) vs. response analysis with variable slope (four parameters). For the in vivo results outliers were identified by a ROUT test (Q = 1%) and excluded. Next, a two-tailed student’s t-test was performed (*p < 0.05, **p < 0.01, ***p < 0.001). All experiments were performed in triplicate and repeated at least three times.

SMILES: N#C[C@@H]1CC(F)(F)CN1C(=O)CNC(=O)c1ccnc2c(OCCCNC(=O)CN3CCN(CC(=O)[O-])CCN(CC(=O)[O-])CCN(CC(=O)[O-])CC3)cccc12.[111In+3] [[^111In]In-eFAP-6]
- Stability (% ± SD) PBS 1 h [1]: 93.2 ± 0.5%
- Stability (% ± SD) PBS 4 h [1]: 93.1 ± 0.6%
- Stability (% ± SD) PBS 24 h [1]: 92.3 ± 0.6%
- degradation [1]: less than 10%
- Stability (% ± SD) Mouse serum 1 h [2]: 92.1 ± 1.2%
- Stability (% ± SD) Mouse serum 4 h [2]: 92.1 ± 1.4%
- Stability (% ± SD) Mouse serum 24 h [2]: 91.0 ± 0.9%
- degradation [2]: less than 10%
- Stability (% ± SD) Human serum 1 h [3]: 91.2 ± 0.1%
- Stability (% ± SD) Human serum 4 h [3]: 91.3 ± 0.7%
- Stability (% ± SD) Human serum 24 h [3]: 90.4 ± 0.8%
- degradation [3]: less than 10%
- LogD7.4 [4]: -3.90 ± 0.03
- incubation time at peak uptake (HT1080-huFAP cells; 1 nM radiotracer, 5–120 min): 15 min
- peak uptake (HT1080-huFAP cells; 1 nM radiotracer, 5–120 min): 20.8 % AA/200,000 cells
- uptake on co-incubation with an excess of UAMC-1110 (block) (HT1080-huFAP cells; 1 mM UAMC-1110, 45 min): negligible uptake

SMILES: N#C[C@@H]1CC(F)(F)CN1C(=O)CNC(=O)c1ccnc2c(OCCCNC(=O)CN3CCN(CC(=O)[O-])CCN(CC(=O)[O-])CCN(CC(=O)[O-])CC3)cccc12.[177Lu+3] [[^177Lu]Lu-eFAP-6]
- Stability (% ± SD) PBS 1 h [1]: 97.6 ± 1.1%
- Stability (% ± SD) PBS 4 h [1]: 97.3 ± 0.4%
- Stability (% ± SD) PBS 24 h [1]: 94.9 ± 0.6%
- degradation [1]: less than 5%
- Stability (% ± SD) Mouse serum 1 h [2]: 99.3 ± 1.2%
- Stability (% ± SD) Mouse serum 4 h [2]: 99.5 ± 0.5%
- Stability (% ± SD) Mouse serum 24 h [2]: 98.1 ± 0.4%
- degradation [2]: less than 5%
- Stability (% ± SD) Human serum 1 h [3]: 99.5 ± 0.0%
- Stability (% ± SD) Human serum 4 h [3]: 99.5 ± 0.0%
- Stability (% ± SD) Human serum 24 h [3]: 98.1 ± 0.3%
- degradation [3]: less than 5%
- Biodistribution Bone ([5]; 1 h p.i.): 1,80 ± 0,44 %ID/g
- Biodistribution Blood ([5]; 1 h p.i.): 0,38 ± 0,08 %ID/g
- Biodistribution Cecum ([5]; 1 h p.i.): 0,36 ± 0,01 %ID/g
- Biodistribution Colon ([5]; 1 h p.i.): 0,19 ± 0,05 %ID/g
- Biodistribution Heart ([5]; 1 h p.i.): 0,15 ± 0,04 %ID/g
- Biodistribution Kidneys ([5]; 1 h p.i.): 2,46 ± 0,83 %ID/g
- Biodistribution Liver ([5]; 1 h p.i.): 2,32 ± 0,43 %ID/g
- Biodistribution Lungs ([5]; 1 h p.i.): 0,33 ± 0,08 %ID/g
- Biodistribution Muscle ([5]; 1 h p.i.): 0,19 ± 0,03 %ID/g
- Biodistribution Pancreas ([5]; 1 h p.i.): 0,25 ± 0,02 %ID/g
- Biodistribution Salivary glands ([5]; 1 h p.i.): 0,56 ± 0,08 %ID/g
- Biodistribution Small intestines ([5]; 1 h p.i.): 0,33 ± 0,34 %ID/g
- Biodistribution Stomach ([5]; 1 h p.i.): 0,33 ± 0,32 %ID/g
- Biodistribution Tumor HT1080-WT ([5]; 1 h p.i.): 0,50 ± 0,11 %ID/g
- Biodistribution Tumor HT1080-huFAP ([5]; 1 h p.i.): 6,44 ± 1,09 %ID/g
- Biodistribution Bone ([5]; 4 h p.i.): 1,27 ± 0,24 %ID/g
- Biodistribution Blood ([5]; 4 h p.i.): 0,22 ± 0,07 %ID/g
- Biodistribution Cecum ([5]; 4 h p.i.): 0,32 ± 0,08 %ID/g
- Biodistribution Colon ([5]; 4 h p.i.): 0,14 ± 0,03 %ID/g
- Biodistribution Heart ([5]; 4 h p.i.): 0,10 ± 0,03 %ID/g
- Biodistribution Kidneys ([5]; 4 h p.i.): 1,11 ± 0,21 %ID/g
- Biodistribution Liver ([5]; 4 h p.i.): 2,87 ± 1,18 %ID/g
- Biodistribution Lungs ([5]; 4 h p.i.): 0,15 ± 0,03 %ID/g
- Biodistribution Muscle ([5]; 4 h p.i.): 0,16 ± 0,06 %ID/g
- Biodistribution Pancreas ([5]; 4 h p.i.): 0,18 ± 0,06 %ID/g
- Biodistribution Salivary glands ([5]; 4 h p.i.): 0,41 ± 0,14 %ID/g
- Biodistribution Small intestines ([5]; 4 h p.i.): 0,12 ± 0,04 %ID/g
- Biodistribution Stomach ([5]; 4 h p.i.): 0,11 ± 0,04 %ID/g
- Biodistribution Tumor HT1080-WT ([5]; 4 h p.i.): 0,36 ± 0,11 %ID/g
- Biodistribution Tumor HT1080-huFAP ([5]; 4 h p.i.): 5,92 ± 1,63 %ID/g
- Biodistribution GI Tract ([5]; 4 h p.i.): 0,17 ± 0,05 %ID/g
- Biodistribution Bone ([5]; 24 h p.i.): 0,19 ± 0,01 %ID/g
- Biodistribution Blood ([5]; 24 h p.i.): 0,01 ± 0,00 %ID/g
- Biodistribution Cecum ([5]; 24 h p.i.): 0,03 ± 0,00 %ID/g
- Biodistribution Colon ([5]; 24 h p.i.): 0,02 ± 0,01 %ID/g
- Biodistribution Heart ([5]; 24 h p.i.): 0,01 ± 0,00 %ID/g
- Biodistribution Liver ([5]; 24 h p.i.): 1,67 ± 1,07 %ID/g
- Biodistribution Lungs ([5]; 24 h p.i.): 0,01 ± 0,00 %ID/g
- Biodistribution Muscle ([5]; 24 h p.i.): 0,01 ± 0,00 %ID/g
- Biodistribution Pancreas ([5]; 24 h p.i.): 0,01 ± 0,00 %ID/g
- Biodistribution Salivary glands ([5]; 24 h p.i.): 0,02 ± 0,00 %ID/g
- Biodistribution Small intestines ([5]; 24 h p.i.): 0,02 ± 0,00 %ID/g
- Biodistribution Stomach ([5]; 24 h p.i.): 0,02 ± 0,01 %ID/g
- Biodistribution Tumor HT1080-WT ([5]; 24 h p.i.): 0,06 ± 0,01 %ID/g
- Biodistribution GI Tract ([5]; 24 h p.i.): 0,02 ± 0,00 %ID/g
